Measurements from patent US9359378B2, “Substituted oxazolo[3,4-a]pyrazines as pharmaceutcals” (BIOLAB SANUS FARMACÊUTICA LTDA., priority 2014, dated 2016).

Experiments:
[1] = system: rabbit's corpus cavernosum; assay: Relaxing effect in isolated rabbit's corpus cavernosum strips pre-contracted with phenylephrine (isometric tension); design: species or system New Zealand White rabbits; conditions: for tissue relaxation of phenylephrine-contracted corpus cavernosum: 1 μM compound, contraction induced by 1 μM phenylephrine (PE), FIGS. 8-10; for percentage of relaxation in rabbit's corpus cavernosum: FIGS. 12 and 13
Protocol: For this study, New Zealand White rabbits (2 to 3.5 kg) were used to obtain penile tissue which was excised and transferred to a chilled Krebs solution. For this study, we used cavernosum strips (CC) of the penile tissue of New Zealand White rabbits. The strips were mounted in 10 ml tissue incubation chambers containing Krebs solution at 37° C., pH occurring between 7.3 and 7.5; continuously bubbled with a mixture of 95% oxygen (O2) and 5% carbon dioxide (CO2). An initial tension of 10 mN were applied on the tissues, followed by a 60 minute stabilization period. Changes in tension (isometric force) were obtained using isometric transducers (ADInstruments, Australia) and recorded in a data acquisition system PowerLab 4/30 (Chart Software, version 7.3.7, ADInstruments, MA, USA for BL-230 and version 7.0 ADInstruments, MA for the BL-236). […] Cumulative curve responses to the concentration of BL-230 compounds and tadalafil (0.001 to 10 μM) were obtained in the pre-contracted rabbit corpus cavernosum strips with 1 μM PE.

PDE3A = molecular target: T1, PDE3A (Homo sapiens, UniProt Q14432); assay: PDE3A enzyme inhibition (HTRF, cAMP substrate); type: biochemical; conditions: human recombinant enzyme (Sf9); FIGS. 14 and 15; test concentration not given
T1 construct: host or cells: Sf9
T1 sequence (Q14432 whole entry): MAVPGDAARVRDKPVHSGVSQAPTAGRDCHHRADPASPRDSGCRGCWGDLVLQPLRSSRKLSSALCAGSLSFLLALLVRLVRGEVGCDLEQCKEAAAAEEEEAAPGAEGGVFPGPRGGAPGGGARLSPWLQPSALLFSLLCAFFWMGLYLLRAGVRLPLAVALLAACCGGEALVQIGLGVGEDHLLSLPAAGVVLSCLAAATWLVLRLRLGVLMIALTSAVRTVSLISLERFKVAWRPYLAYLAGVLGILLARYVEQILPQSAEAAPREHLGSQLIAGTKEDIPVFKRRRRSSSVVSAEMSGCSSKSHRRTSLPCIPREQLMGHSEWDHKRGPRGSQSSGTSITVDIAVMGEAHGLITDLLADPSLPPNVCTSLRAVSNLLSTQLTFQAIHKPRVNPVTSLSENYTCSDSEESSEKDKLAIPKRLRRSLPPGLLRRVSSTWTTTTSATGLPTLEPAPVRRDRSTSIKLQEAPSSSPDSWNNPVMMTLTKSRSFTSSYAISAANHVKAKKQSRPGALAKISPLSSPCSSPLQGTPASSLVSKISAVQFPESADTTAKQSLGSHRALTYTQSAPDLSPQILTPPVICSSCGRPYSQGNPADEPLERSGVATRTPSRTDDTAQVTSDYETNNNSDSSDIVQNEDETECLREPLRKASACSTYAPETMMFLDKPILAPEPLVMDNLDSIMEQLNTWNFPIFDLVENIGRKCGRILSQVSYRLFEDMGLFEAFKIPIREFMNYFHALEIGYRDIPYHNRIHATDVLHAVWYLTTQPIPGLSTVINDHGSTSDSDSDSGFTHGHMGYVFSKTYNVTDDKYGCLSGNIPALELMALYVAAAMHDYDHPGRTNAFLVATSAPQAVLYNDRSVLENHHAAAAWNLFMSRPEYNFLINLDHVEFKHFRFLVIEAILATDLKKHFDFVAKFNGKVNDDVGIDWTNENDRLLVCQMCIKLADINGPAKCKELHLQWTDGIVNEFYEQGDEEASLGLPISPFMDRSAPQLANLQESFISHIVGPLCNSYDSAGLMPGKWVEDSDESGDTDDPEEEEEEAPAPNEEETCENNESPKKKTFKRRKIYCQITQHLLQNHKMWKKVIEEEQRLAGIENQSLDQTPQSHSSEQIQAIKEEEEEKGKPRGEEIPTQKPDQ
From the text: (§1) The effects of the BL-230 and BL-236 compounds on the activity of the human enzymes PDE2A1, PDE3A, PDE4A1A, PDE4B1, PDE7A, PDE8A1, and PDE10A2 and PDE11A4 were quantified by measuring the production of adenosine 5′-monophosphate (5′AMP) from cyclic adenosine monophosphate (cAMP), with human recombinant enzyme expressed in Sf9 cells and the detection method was by using HTRF®.
(§2) The test compound, the reference compound or water (control) were mixed with the enzyme (the enzymes and their amounts used are described in Table 1) in a buffer containing 44.4 mM Tris-HCl, 5.28 mM MgCl2, 2.64 mM DTT and 0.044% Tween® 20 (pH 7.8). Then, the reaction was initiated by the addition of 40 nM of cAMP substrate and the mixture was incubated for 30 minutes at room temperature. For basal control measurements, the enzyme was omitted from the reaction mixture. The fluorescence acceptor (Dye2 labeled cAMP) and fluorescence donor (anti-cAMP antibody labeled with europium cryptate) were added in the presence of 1 mM IBMX. After 60 minutes, the fluorescence corresponding to the amount of transfer residual cAMP was measured at λex=337 nm, λem=620 nm and λem=665 nm using a microplate reader (RubyStar, BMG). The enzyme activity was determined by the signal division measured at 665 nm, by the measured signal at 620 nm (right). The results were expressed as a inhibition percentage of the control enzyme activity. […]

PDE11A4 = molecular target: T2, PDE11A4 (Homo sapiens, UniProt Q9HCR9); assay: PDE11A4 enzyme inhibition (HTRF, cAMP substrate); type: biochemical; conditions: human recombinant enzyme (Sf9); FIGS. 14 and 15; test concentration not given
T2 construct: host or cells: Sf9
T2 sequence (Q9HCR9 whole entry): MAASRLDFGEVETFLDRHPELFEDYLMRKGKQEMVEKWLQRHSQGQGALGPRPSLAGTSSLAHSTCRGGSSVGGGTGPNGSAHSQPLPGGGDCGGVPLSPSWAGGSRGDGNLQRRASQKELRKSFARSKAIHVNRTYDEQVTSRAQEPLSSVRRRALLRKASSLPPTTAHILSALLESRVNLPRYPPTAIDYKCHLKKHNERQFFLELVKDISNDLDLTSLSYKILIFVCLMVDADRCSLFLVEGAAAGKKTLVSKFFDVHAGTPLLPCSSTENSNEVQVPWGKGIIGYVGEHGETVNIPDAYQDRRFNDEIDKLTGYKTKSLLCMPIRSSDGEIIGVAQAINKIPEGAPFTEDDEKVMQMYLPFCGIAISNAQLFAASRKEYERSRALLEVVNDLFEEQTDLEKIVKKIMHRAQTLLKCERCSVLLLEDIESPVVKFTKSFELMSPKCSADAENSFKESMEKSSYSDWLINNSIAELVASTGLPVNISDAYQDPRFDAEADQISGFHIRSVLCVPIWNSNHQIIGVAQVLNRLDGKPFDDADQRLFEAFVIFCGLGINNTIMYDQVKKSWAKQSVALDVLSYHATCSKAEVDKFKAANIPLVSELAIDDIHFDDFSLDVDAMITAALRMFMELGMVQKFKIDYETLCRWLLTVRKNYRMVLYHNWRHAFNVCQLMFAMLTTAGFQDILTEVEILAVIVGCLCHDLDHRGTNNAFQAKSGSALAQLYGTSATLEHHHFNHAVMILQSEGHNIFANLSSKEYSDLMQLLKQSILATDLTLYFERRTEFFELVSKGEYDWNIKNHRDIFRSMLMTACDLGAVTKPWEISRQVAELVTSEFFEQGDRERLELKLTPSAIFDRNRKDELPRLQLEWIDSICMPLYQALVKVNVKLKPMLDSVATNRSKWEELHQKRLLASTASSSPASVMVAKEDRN
From the text: as §1, §2

PDE4D2 = molecular target: T3, PDE4D2 (Homo sapiens, UniProt Q08499); assay: PDE4D2 enzyme inhibition (HTRF, cAMP substrate); type: biochemical; conditions: human recombinant enzyme (Sf9); FIGS. 14 and 15; test concentration not given
T3 construct: host or cells: Sf9
T3 sequence (Q08499 303-809 limits assumed): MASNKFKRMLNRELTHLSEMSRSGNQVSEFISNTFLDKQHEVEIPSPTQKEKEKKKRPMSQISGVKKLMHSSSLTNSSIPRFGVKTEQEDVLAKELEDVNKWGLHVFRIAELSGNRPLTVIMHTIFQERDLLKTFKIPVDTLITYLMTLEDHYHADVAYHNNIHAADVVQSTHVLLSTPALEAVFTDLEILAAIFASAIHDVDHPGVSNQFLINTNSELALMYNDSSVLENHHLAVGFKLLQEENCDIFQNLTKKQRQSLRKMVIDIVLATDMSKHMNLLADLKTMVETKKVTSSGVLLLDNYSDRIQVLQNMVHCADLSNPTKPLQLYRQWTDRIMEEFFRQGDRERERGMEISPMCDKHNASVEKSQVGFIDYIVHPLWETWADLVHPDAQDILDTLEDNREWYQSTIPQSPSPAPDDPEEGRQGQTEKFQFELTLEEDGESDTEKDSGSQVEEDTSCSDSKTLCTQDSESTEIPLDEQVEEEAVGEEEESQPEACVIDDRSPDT
Protocol: The effects of the BL-230 and BL-236 compounds on the activity of the human PDE4D2 enzyme were quantified by measuring the production from 5′ AMP cAMP using a human recombinant enzyme expressed in Sf9 cells and the method of detection used was the HTRF®.
The test compound, the reference compound or the water (control) were mixed with 0.75 U of PDE4D2 in a saline buffer solution balanced with Hanks (HBSS) (Invitrogen) supplemented, and 1.5 mM MgCl2, 0.1% bovine serum albumin (BSA). Then, the reaction was initiated by addition of 40 nM of cAMP substrate and the mixture is incubated for 15 minutes at 37° C. For basal control measurements, the enzyme was omitted from the reaction mixture. The fluorescence acceptor (Dye2 labeled cAMP) and fluorescence donor (anti-cAMP antibody labeled with europium cryptate) are added in the presence of 1 mM IBMX. After 60 minutes at room temperature, the fluorescence corresponding to the amount of transfer residual cAMP was measured at λex=337 nm, λem=620 nm and λem=665 nm using a microplate reader (Envision, Perkin Elmer). The enzyme activity was determined by the signal division measured at 665 nm, by the measured signal at 620 nm (ratio). The results were expressed as an inhibition percentage of the control enzyme activity. […]

[2] = strips pre-contracted with 1 μM PE

SMILES | tissue relaxation of phenylephrine-contracted corpus cavernosum [1] | cumulative concentration-response relaxation ([1]; 0.001 to 10 μM, strips pre-contracted with 1 μM PE, FIG. 11) | percentage of relaxation in rabbit's corpus cavernosum [1, 2] [%] | inhibition of PDE3A enzyme activity (PDE3A) | inhibition of PDE11A4 enzyme activity (PDE11A4) [%] | inhibition of PDE4D2 enzyme activity (PDE4D2)
O=C1C2=C(c3c[nH]c4ccccc34)OC(c3ccc4c(c3)OCO4)N2C(=O)CN1CCO (centres unmarked) [BL-230, 3-(benzo[d][1,3]dioxol-5yl)-7-(2-hydroxyethyl)-1-(1H-indol-3-yl)-6,7-dihydro-3H-oxazolo[3,4-a]pyrazine-5,8-dione] | produced tissue relaxation shape similar to that of tadalafil | dose-dependent relaxation similar to that observed for tadalafil | 78.47 | did not inhibit | 75 | 55%
C[C@@H](CO)N1CC(=O)N2C(=C(c3c[nH]c4ccccc34)OC2c2ccc3c(c2)OCO3)C1=O (stereo partly drawn) [BL-236, 3-(benzo[d][1,3]dioxol-5yl)-7-((S)1-hydroxypropan-2yl)-1-(1H-indol-3-yl)-6,7-dihydro-3H-oxazolo[3,4-a]pyrazine-5,8-dione] | produced tissue relaxation shape similar to that of tadalafil |  | 93.05 | did not inhibit | 80 | no inhibitory effect
